Patent US20240228542A1, “LYTIC DOMAIN FUSION CONSTRUCTS, CHECKPOINT INHIBITORS, AND METHODS OF MAKING AND USING SAME” (A28 Therapeutics Inc., priority 2020, published 2024)

Key:
[1] = test system: MDA-MB-435S.luc xenograft; assay: MDA-MB-435S.luc xenograft, βCG fusion constructs; format: in vivo, Nu/Nu mice; details: vs baseline and saline controls
Procedure: Female Nu/Nu mice were injected subcutaneously with a MDA-MB-435S.luc/Matrigel HC suspension (1×10^6 cells). In brief, treatment started on day 13 after tumor cell injection and continued on day 19 and 25. […] The doses for weekly injections were 5, 1 and 0.01 mg/kg body weight, given as a bolus single injection.
The effect of cytolytic peptide injections on the primary tumors is illustrated in FIG. 8. In brief, the FIGS. 8A-8C show tumor volume during the course of the study for each individual peptide. FIGS. 8D-8G show tumor characteristics at necropsy; tumor volume (D), tumor weight (E), live tumor cells (F), tumor conditions (G).
Treatment efficacy was calculated as difference between measurements at the beginning of treatment compared to the measurement at the end of study (FIG. 8H-8I). […] Viability of cells in the tumors was determined at the end of the study when tumors were measured for luciferase activity.

[2] = test system: MDA-MB-435S.luc xenograft; assay: MDA-MB-435S.luc xenograft, LHRH fusion constructs; format: in vivo, Nu/Nu mice
Procedure: For LHRH fusion constructs, the mouse xenograft model for breast cancer was used. In brief. Nu/Nu female mice, outbred strain, age 5 weeks (Charles River) were injected subcutaneously with a MDA-MB-435S.luc/Matrigel suspension (1×10^6 cells). Treatment was started on day 21 after tumor cell injection and continued on day 26 and 29. The doses for weekly fusion construct injections were 2, 0.2 and 0.02 mg/kg body weight, given as a bolus single injection. All mice were necropsied 34 days after tumor cell injection-baseline values for tumor weights were obtained by sacrificing 8 mice at treatment start. Primary tumors, liver, kidney, pancreas, heart, lung, and spleen were collected and prepared for histological evaluation in formalin. Tumor weights were recorded at necropsy, part of the tumors were frozen at −80 ° C. for luciferase assay determination.
Characteristics of tumors at necropsy are summarized in FIG. 10; (A) tumor weight, (B) changes of tumor weights compared to baseline, (C) total number of live tumor cells, (D) changes of total live tumor cells compared to baseline, and (E) bodyweights at baseline and necropsy. Viability of tumor cells was determined at the end of the study when tumors were measured for luciferase activity. Treatment efficacy was calculated as difference between measurements at the beginning of treatment compared to the measurement at the end of study (FIG. 10B and 10D).

MCF-7 xenograft = assay: MCF-7 breast cancer xenograft; format: in vivo, nude mice; details: MCF-7, 2 × 3 wk, 19 d
Procedure: In vivo efficacy studies were conducted as monotherapy, or a combination therapy with standard of care treatments in nude mice bearing human melanoma xenografts; MDA-MB-435S.luc (s.c.), human breast cancer xenografts MCF-7 (estrogen receptor alpha positive), human ovarian cancer xenografts; OVCAR-3, (s.c.), human prostate cancer xenografts; PC-3 (androgen receptor negative).
Mice were sacrificed one week after the last injection and blood collected for chemistry panel, tumor weights and body weights were recorded. Part of the tumors were fixed in PBS buffered 10% formalin for histological evaluation.

LNCaP = assay: Cytotoxicity in LNCaP prostate cancer cells; format: cell-based; details: LNCaP prostate cancer cell line; read-out: IC50 in Human Cancer Cell Lines
Procedure: MDA-MB-435S.luc cells were grown in Leibovitz's L 15 medium, 10% fetal bovine serum, 0.01 mg/ml bovine insulin, 100 IU/ml penicillin, 100 microg/ml streptomycin. The cells were cultured in tight closed flasks. The incubations were conducted using 96 well plates at 10,000 cells per well. Cells were typically seeded into 96 well plates and media was replaced after 48 hours of incubation. Each assay was conducted at increasing concentrations of 0, 0.001, 0.01, 0.05, 0.1, 0.5, 1, 2, 5, 10 and 100 micromolar doses of lytic peptide-binding domain conjugate. Each lytic peptide-binding domain conjugate provided in lyophilized form and was freshly dissolved in saline and added to cells. The duration of incubation was typically 24 h, and cell viability assays were conducted using formazan conversion assays (MTT assay). Controls contained saline or 0.1% triton as reference for 0 and 100% cell death, respectively.
To ascertain the IC50 of various fusion constructs on different human cancer cell lines compared to cisplatinum, IC50 of fusion constructs were evaluated as in Table 3.

IF5 = assay: Cytotoxicity in IF5 murine ovarian cancer cells (24 h); format: cell-based; details: IF5, 24 h; read-out: In vitro activity (IC50)
Procedure: (§1) Murine ovarian cancer cell lines (ID8, IG10, IF5, and 2Cl2) were grown in RPMI 1640 media with 10% Fetal Bovine Serum. Cells were typically seeded (3000 cells per well) into 96 well plates and media was replaced after 48 hours of incubation. […] Phor18-LHRH was provided in lyophilized form was dissolved in saline and added to cells. The duration of incubation was 24 h at 37° C. Cell viability was assessed after 24 hours using a luminometric assays (Promega, CellTiter-0Glo 2.0, G9243). Controls contained saline or 0.1% triton as reference for 0 and 100% cell death, respectively.
(§2) Data were processed and analyzed using GraphPad Prism version 7.00 for Windows (GraphPad Software, San Diego California). Statistical analysis for significance was determined by a two-tailed Student's T-test. Each study was conducted to achieve an […] of at least 6.
(§3) In vitro activities were expressed as IC50 values for each cell line, time point and compound tested that were calculated using the Hill equation (Graph Pad Prizm software).

CD8+ T cells = assay: T cell activation by condition media from EP-100-treated ID8 cells; format: cell-based, mouse; details: cells treated with condition media (CM) from EP-100-treated cells; controls 12.3±1.1, p=0.04
MDA-MB-435S xenograft = assay: MDA-MB-435S xenograft, kinetics after a single injection; format: in vivo, Nu/Nu mice; details: 0.2 and 2 mg/kg
Procedure: In brief, Nu/Nu female mice, outbred strain, age 5 weeks (Charles River), were injected (s.c.) into the interscapular region with a MDA-MB-435S (passage #249)/Matrigel suspension (2.4×10^6 cells/mouse) as described in Example 10. Phor 18-LHRH (338613) (ID: 338613 lot #P080401) (0.2, and 2 mg/kg) were reconstituted in USP saline prior to dosing. The doses were given as a single bolus intravenous injection via lateral tail vein.
Mice were sacrificed 1, 2 and 16 hours after treatment with Phor 18-LHRH (338613) or saline. At study endpoint body weight, tumor weights were determined, and tumors were fixed in phosphate buffered 10% formalin.

2C12 = assay: Cytotoxicity in 2C12 murine ovarian cancer cells (24 h); format: cell-based; details: 2C12, 24 h; read-out: In vitro activity (IC50)
Procedure: as §1, §2, §3

## KFAKFAKKFAKFAKKFAK [Phor18, reference compound]
[1]
  tumor volume: ineffective in reducing the xenograft volume

## KFAKFAKKFAKFAKKFAKQHWSYGLRPG [Phor18-LHRH]
[2]; 0.02, 0.2 and 2 mg/kg, vs baseline, saline and Phor21-βCG-ala
  treatment efficacy (tumor weight, live tumor cells): Equally effective as Phor21-βCG-ala
[2]; during treatment and after 30 days
  tumor volume: smallest tumor volumes
[2]; mouse, in vivo
  concentrations resulting in tumor weights similar to baseline: 0.2 mg/kg
[2]; tumor weight and live tumor cell reduction vs baseline compared to peptide 33, LHRH construct study
  In vivo Performance compared to 33: 1
MCF-7 xenograft
  Median Tumor Weight vs Saline P < 0.05 (dose, growth delay): 0.02 mg/kg
LNCaP
  IC50: 1550 ± 80 nM
IF5
  IC50: 1010 nM
CD8+ T cells
  proportion of CD8+ T cells: 17.3±1.1
MDA-MB-435S xenograft
  time to destruction of tumors after injection: 1 h
2C12
  IC50: 1020 nM
